Laboratory results reported in the NIST ThermoML archive (doi:10.1016/j.jct.2016.03.003).
± gives the expanded uncertainty stated by the source.

Experiment: mn = molality of the nth substance listed, in mol/kg
Conditions: 101.3 kPa, Liquid, Vibrating tube method

Q: Which mass density (313.15 K, m1 = 0.0016) does the source give for C[C@H](O)C(=O)[O-].C[C@H](O)C(=O)[O-].C[C@H](O)C(=O)[O-].[Al+3] [aluminium L-lactate] + O here?
A: 992.55 ± 0.43 kg/m3

Q: What about the mass density (313.15 K, m1 = 0.0033) of the same molecule?
A: 992.76 ± 0.42 kg/m3

Q: And the mass density (313.15 K, m1 = 0.0065)?
A: 993.14 ± 0.42 kg/m3

Q: And the mass density (313.15 K, m1 = 0.016)?
A: 994.21 ± 0.42 kg/m3

Q: What about the mass density (313.15 K, m1 = 0.0281) of the same molecule?
A: 995.56 ± 0.42 kg/m3

Q: What about the mass density (313.15 K, m1 = 0.0521) of the same molecule?
A: 998.12 ± 0.42 kg/m3

Q: And the mass density (313.15 K, m1 = 0.0995)?
A: 1003.06 ± 0.41 kg/m3

Q: And the mass density (313.15 K, m1 = 0.1996)?
A: 1013.23 ± 0.42 kg/m3

Q: What about the mass density (313.15 K, m1 = 0.3045) of the same molecule?
A: 1023.41 ± 0.42 kg/m3

Q: What about the mass density (313.15 K, m1 = 0.4021) of the same molecule?
A: 1032.44 ± 0.42 kg/m3

Q: What about the mass density (313.15 K, m1 = 0.5059) of the same molecule?
A: 1041.59 ± 0.42 kg/m3

Q: What about the mass density (313.15 K, m1 = 0.5991) of the same molecule?
A: 1049.59 ± 0.42 kg/m3

Q: What about the mass density (313.15 K, m1 = 0.7147) of the same molecule?
A: 1059.14 ± 0.42 kg/m3

Q: And the mass density (318.15 K, m1 = 0.0016)?
A: 990.54 ± 0.43 kg/m3

Q: What about the mass density (318.15 K, m1 = 0.0033) of the same molecule?
A: 990.75 ± 0.42 kg/m3

Q: And the mass density (318.15 K, m1 = 0.0065)?
A: 991.13 ± 0.42 kg/m3

Q: And the mass density (318.15 K, m1 = 0.016)?
A: 992.2 ± 0.42 kg/m3

Q: And the mass density (318.15 K, m1 = 0.0281)?
A: 993.53 ± 0.42 kg/m3

Q: What about the mass density (318.15 K, m1 = 0.0521) of the same molecule?
A: 996.09 ± 0.42 kg/m3

Q: What about the mass density (318.15 K, m1 = 0.0995) of the same molecule?
A: 1001 ± 0.41 kg/m3

Q: And the mass density (318.15 K, m1 = 0.1996)?
A: 1011.1 ± 0.41 kg/m3

Q: What about the mass density (318.15 K, m1 = 0.3045) of the same molecule?
A: 1021.23 ± 0.42 kg/m3

Q: And the mass density (318.15 K, m1 = 0.4021)?
A: 1030.23 ± 0.42 kg/m3

Q: What about the mass density (318.15 K, m1 = 0.5059) of the same molecule?
A: 1039.33 ± 0.42 kg/m3

Q: What about the mass density (318.15 K, m1 = 0.5991) of the same molecule?
A: 1047.3 ± 0.42 kg/m3

Q: And the mass density (318.15 K, m1 = 0.7147)?
A: 1056.79 ± 0.42 kg/m3

Q: What about the mass density (323.15 K, m1 = 0.0016) of the same molecule?
A: 988.37 ± 0.43 kg/m3

Q: What about the mass density (323.15 K, m1 = 0.0033) of the same molecule?
A: 988.56 ± 0.42 kg/m3

Q: And the mass density (323.15 K, m1 = 0.0065)?
A: 988.95 ± 0.42 kg/m3

Q: And the mass density (323.15 K, m1 = 0.016)?
A: 990 ± 0.42 kg/m3

Q: And the mass density (323.15 K, m1 = 0.0281)?
A: 991.34 ± 0.42 kg/m3

Q: What about the mass density (323.15 K, m1 = 0.0521) of the same molecule?
A: 993.87 ± 0.42 kg/m3

Q: And the mass density (323.15 K, m1 = 0.0995)?
A: 998.76 ± 0.41 kg/m3

Q: What about the mass density (323.15 K, m1 = 0.1996) of the same molecule?
A: 1008.81 ± 0.41 kg/m3

Q: What about the mass density (323.15 K, m1 = 0.3045) of the same molecule?
A: 1018.9 ± 0.42 kg/m3

Q: What about the mass density (323.15 K, m1 = 0.4021) of the same molecule?
A: 1027.86 ± 0.42 kg/m3

Q: What about the mass density (323.15 K, m1 = 0.5059) of the same molecule?
A: 1036.92 ± 0.42 kg/m3

Q: And the mass density (323.15 K, m1 = 0.5991)?
A: 1044.84 ± 0.42 kg/m3

Q: And the mass density (323.15 K, m1 = 0.7147)?
A: 1054.31 ± 0.42 kg/m3

Q: What about the mass density (328.15 K, m1 = 0.0016) of the same molecule?
A: 986.02 ± 0.43 kg/m3

Q: And the mass density (328.15 K, m1 = 0.0033)?
A: 986.21 ± 0.42 kg/m3

Q: What about the mass density (328.15 K, m1 = 0.0065) of the same molecule?
A: 986.59 ± 0.42 kg/m3

Q: And the mass density (328.15 K, m1 = 0.016)?
A: 987.65 ± 0.42 kg/m3

Q: What about the mass density (328.15 K, m1 = 0.0281) of the same molecule?
A: 988.97 ± 0.42 kg/m3

Q: What about the mass density (328.15 K, m1 = 0.0521) of the same molecule?
A: 991.49 ± 0.42 kg/m3

Q: What about the mass density (328.15 K, m1 = 0.0995) of the same molecule?
A: 996.36 ± 0.41 kg/m3

Q: What about the mass density (328.15 K, m1 = 0.1996) of the same molecule?
A: 1006.37 ± 0.41 kg/m3

Q: What about the mass density (328.15 K, m1 = 0.3045) of the same molecule?
A: 1016.42 ± 0.41 kg/m3

Q: What about the mass density (328.15 K, m1 = 0.4021) of the same molecule?
A: 1025.32 ± 0.42 kg/m3

Q: What about the mass density (328.15 K, m1 = 0.5059) of the same molecule?
A: 1034.36 ± 0.42 kg/m3

Q: What about the mass density (328.15 K, m1 = 0.5991) of the same molecule?
A: 1042.24 ± 0.42 kg/m3

Q: And the mass density (328.15 K, m1 = 0.7147)?
A: 1051.67 ± 0.42 kg/m3

Q: What about the mass density (333.15 K, m1 = 0.0016) of the same molecule?
A: 983.53 ± 0.43 kg/m3

Q: And the mass density (333.15 K, m1 = 0.0033)?
A: 983.72 ± 0.42 kg/m3

Q: What about the mass density (333.15 K, m1 = 0.0065) of the same molecule?
A: 984.09 ± 0.42 kg/m3

Q: And the mass density (333.15 K, m1 = 0.016)?
A: 985.14 ± 0.42 kg/m3

Q: And the mass density (333.15 K, m1 = 0.0281)?
A: 986.48 ± 0.42 kg/m3

Q: And the mass density (333.15 K, m1 = 0.0521)?
A: 988.97 ± 0.42 kg/m3

Q: And the mass density (333.15 K, m1 = 0.0995)?
A: 993.82 ± 0.41 kg/m3

Q: What about the mass density (333.15 K, m1 = 0.1996) of the same molecule?
A: 1003.79 ± 0.41 kg/m3

Q: What about the mass density (333.15 K, m1 = 0.3045) of the same molecule?
A: 1013.8 ± 0.41 kg/m3

Q: What about the mass density (333.15 K, m1 = 0.4021) of the same molecule?
A: 1022.68 ± 0.41 kg/m3

Q: What about the mass density (333.15 K, m1 = 0.5059) of the same molecule?
A: 1031.67 ± 0.42 kg/m3

Q: And the mass density (333.15 K, m1 = 0.5991)?
A: 1039.53 ± 0.42 kg/m3

Q: And the mass density (333.15 K, m1 = 0.7147)?
A: 1048.93 ± 0.42 kg/m3

Q: What about the mass density (338.15 K, m1 = 0.0016) of the same molecule?
A: 980.88 ± 0.42 kg/m3

Q: What about the mass density (338.15 K, m1 = 0.0033) of the same molecule?
A: 981.06 ± 0.42 kg/m3

Q: What about the mass density (338.15 K, m1 = 0.0065) of the same molecule?
A: 981.45 ± 0.42 kg/m3

Q: And the mass density (338.15 K, m1 = 0.016)?
A: 982.49 ± 0.42 kg/m3

Q: And the mass density (338.15 K, m1 = 0.0281)?
A: 983.81 ± 0.42 kg/m3

Q: What about the mass density (338.15 K, m1 = 0.0521) of the same molecule?
A: 986.3 ± 0.42 kg/m3

Q: And the mass density (338.15 K, m1 = 0.0995)?
A: 991.13 ± 0.41 kg/m3

Q: And the mass density (338.15 K, m1 = 0.1996)?
A: 1001.06 ± 0.41 kg/m3

Q: What about the mass density (338.15 K, m1 = 0.3045) of the same molecule?
A: 1011.04 ± 0.41 kg/m3

Q: And the mass density (338.15 K, m1 = 0.4021)?
A: 1019.88 ± 0.41 kg/m3

Q: And the mass density (338.15 K, m1 = 0.5059)?
A: 1028.85 ± 0.42 kg/m3

Q: And the mass density (338.15 K, m1 = 0.5991)?
A: 1036.68 ± 0.42 kg/m3

Q: And the mass density (338.15 K, m1 = 0.7147)?
A: 1046.04 ± 0.42 kg/m3

Q: What about the mass density (343.15 K, m1 = 0.0016) of the same molecule?
A: 978.11 ± 0.41 kg/m3

Q: What about the mass density (343.15 K, m1 = 0.0033) of the same molecule?
A: 978.27 ± 0.42 kg/m3

Q: What about the mass density (343.15 K, m1 = 0.0065) of the same molecule?
A: 978.67 ± 0.42 kg/m3

Q: And the mass density (343.15 K, m1 = 0.016)?
A: 979.71 ± 0.42 kg/m3

Q: And the mass density (343.15 K, m1 = 0.0281)?
A: 981.02 ± 0.42 kg/m3

Q: And the mass density (343.15 K, m1 = 0.0521)?
A: 983.51 ± 0.42 kg/m3

Q: What about the mass density (343.15 K, m1 = 0.0995) of the same molecule?
A: 988.33 ± 0.41 kg/m3

Q: What about the mass density (343.15 K, m1 = 0.1996) of the same molecule?
A: 998.2 ± 0.41 kg/m3

Q: What about the mass density (343.15 K, m1 = 0.3045) of the same molecule?
A: 1008.14 ± 0.41 kg/m3

Q: What about the mass density (343.15 K, m1 = 0.4021) of the same molecule?
A: 1017.05 ± 0.41 kg/m3

Q: And the mass density (343.15 K, m1 = 0.5059)?
A: 1025.9 ± 0.42 kg/m3

Q: What about the mass density (343.15 K, m1 = 0.5991) of the same molecule?
A: 1033.73 ± 0.42 kg/m3

Q: And the mass density (343.15 K, m1 = 0.7147)?
A: 1043.05 ± 0.42 kg/m3
